The % Inhibition is the share of the control response that was lost under treatment. As usually defined, the GI50 is the concentration giving 50% growth inhibition. What is called IC50 is the concentration that gives 50% inhibition. Higher therefore signals lower potency.

This is an account of results in article PMC9032693, “Biological Evaluation of New Thienopyridinium and Thienopyrimidinium Derivatives as Human Choline Kinase Inhibitors” (Pharmaceutics, 2022).

Test [1] concerns MDA-MB-231. Put plainly: Apoptosis by annexin-V-FITC/PI flow cytometry. The settings on record: MDA-MB-231, 1 and 5 µM, 72 h. The test is classed as cell-based, human. As for the experimental part:
(§1) MDA-MB-231, A549, and HeLa cells were treated with compound Ff-35 for 72 h and then stained using a commercial kit (Annexin-V-Fluos, Roche Diagnostics, Milano, Italy) containing Annexin-V conjugated with fluorescein isothiocyanate and Propidium iodide (PI). All the procedures were executed according to manufacturer’s instructions. Apoptotic cells were then analyzed through a cytofluorimeter (Beckman Coulter Cytomics FC500).
On the technique in general: In flow cytometry, cells or beads pass a laser one at a time.

In test [2] the test system is HeLa. The experiment in a line: Apoptosis by annexin-V-FITC/PI flow cytometry. Format: cell-based, human. The conditions noted are these: 1 and 5 µM, 72 h. As for the experimental part: as §1
Test [3] concerns A549. The experiment in a line: Apoptosis by annexin-V-FITC/PI flow cytometry. Format: cell-based, human. The settings on record: A549, 1 and 5 µM, 72 h. The protocol:
as §1

The test system of test [4] is HepG2 cells. The experiment in a line: Choline uptake assay ([methyl-14C]choline). The test is classed as cell-based, human. The conditions noted are these: HepG2, 24 h. The protocol:
Choline uptake was assessed as previously reported. Briefly, HepG2 cells (200,000 cells/well) were incubated for 24 h at 37 °C with different concentrations of CKα1 inhibitors. Then, cells were exposed to [methyl-^14C]choline ([…], 31 Ci/mol) for 5 min at 37 °C. The reaction was stopped by two washes with ice-cold PBS containing 580 μM choline. The cells were solubilized in NaOH 0.1 N and the total amount of radiolabel taken up by the cells was measured by liquid scintillation using a Beckman 6000-TA counter (Madrid, Spain).

Test [5] deals with MDA-MB-231. Put plainly: Cell cycle analysis by flow cytometry. Format: cell-based, human. The conditions noted are these: MDA-MB-231, 1.0 µM, 48 and 72 h. As for the experimental part: (§2) Three different cell lines (MDA-MB-231, A549, and HeLa) were used to evaluate the effect of compound Ff-35 on the cell cycle. Briefly, cells were treated with the test compound for 48 and 72 h. After this incubation period the cells were trypsinized, centrifuged, and fixed by adding cold ethanol (70% v/v). Cell cycles are then acquired through a cytofluorimeter (Beckman Coulter Cytomics FC500, Milano, Italy) and subsequently analyzed using MultiCycle software (Phoenix Flow Systems, San Diego, CA, USA).

For test [6], the system named is HeLa. Put plainly: Cell cycle analysis by flow cytometry. Format: cell-based, human. The conditions noted are these: 1.0 µM, 48 and 72 h. As for the experimental part:
as §2

For test [7], the system named is A549. Put plainly: Cell cycle analysis by flow cytometry. The test is classed as cell-based, human. The settings on record: A549, 1.0 µM, 48 and 72 h. As for the experimental part: as §2
Test [8] addresses T1, CKα1 (Homo sapiens, UniProt P35790).
T1 construct: an N-terminally His-tagged truncated form of CKα1 (Δ75–457) was cloned into a pET-28a vector; His tag (N); made in house; host or cells: E. coli BL21 (DE3) Star
The experiment in a line: Choline kinase assay ([methyl-14C]choline into PCho, purified enzyme). Format: biochemical. The settings on record: for % Inhibition at 10 µM: purified CKα1, inhibitor 10 µM; for % Inhibition at 10 µM / % Inhibition at 30 µM: end-point assay; for % Inhibition at 30 µM: purified CKα1, inhibitor 30 µM.

Test [9] has as its system MDA-MB-231. Put plainly: Antiproliferative activity, resazurin assay, 72 h. The test is classed as cell-based, human. In general terms: Alamar Blue is a resazurin reagent that responds to reducing activity.
For test [10], the system named is HeLa. Put plainly: Antiproliferative activity, resazurin assay, 72 h. Format: cell-based, human.
Test [11] deals with HL-60. The experiment in a line: Antiproliferative activity, resazurin assay, 72 h. Format: cell-based, human.
The subject of test [12] is RS 4;11. The experiment in a line: Antiproliferative activity, resazurin assay, 72 h. Format: cell-based, human.
Test [13] relates to Jurkat. The experiment in a line: Antiproliferative activity, resazurin assay, 72 h. The test is classed as cell-based, human.
Test [14] concerns SEM cells. The experiment in a line: Antiproliferative activity, resazurin assay, 72 h. The test is classed as cell-based, human.
Test [15] relates to HT29. The experiment in a line: Antiproliferative activity, resazurin assay, 72 h. Format: cell-based, human.
The subject of test [16] is A549. The experiment in a line: Antiproliferative activity, resazurin assay, 72 h. Format: cell-based, human.

T1 sequence (P35790 75-457): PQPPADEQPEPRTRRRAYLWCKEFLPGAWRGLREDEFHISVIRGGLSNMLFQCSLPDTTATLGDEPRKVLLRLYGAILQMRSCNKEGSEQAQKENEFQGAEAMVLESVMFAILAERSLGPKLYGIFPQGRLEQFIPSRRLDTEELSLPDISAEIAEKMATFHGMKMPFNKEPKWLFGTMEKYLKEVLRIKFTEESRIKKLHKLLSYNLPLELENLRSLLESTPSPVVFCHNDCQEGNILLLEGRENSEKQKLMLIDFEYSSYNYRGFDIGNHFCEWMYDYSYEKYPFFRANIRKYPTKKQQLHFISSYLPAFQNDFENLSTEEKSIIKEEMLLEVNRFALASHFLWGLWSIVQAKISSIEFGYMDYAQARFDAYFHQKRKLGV

Consider `[Br-].[Br-].c1cc2c(N3CCCCCC3)nc[n+](Cc3ccc(CCCCc4ccc(C[n+]5cnc(N6CCCCCC6)c6ccsc65)cc4)cc3)c2s1` [Ff-35], for which the apoptotic cells result in test [1], in test [2] and in [3] was “significant increase in apoptotic cells in a concentration-dependent manner” in each case. The “% Inhibition Choline Uptake at 0.1 μM” value in [4] (0.1 μM) amounted to 35.64 ± 0.7%. For the same compound, the “% Inhibition Choline Uptake at 0.5 μM” value in test [4] worked out at 84.99 ± 1.3%. Besides, the “% Inhibition Choline Uptake at 2 μM” value in [4] came out at 96.62 ± 0.316%. For the same compound, the “effect on cell cycle” value in [5], in [6] and in test [7] was “notable increase in the G1 phase accompanied by a reduction in the S phase” each time. For the same compound, the “% Inhibition at 10 µM” value in test [8] is on record as 90.55%. For the same compound, the “% Inhibition at 30 µM” value in [8] was found to be 97.80%.

In the case of `[Br-].[Br-].c1cc2c(N3CCCCCC3)nc[n+](Cc3ccc(OCCOc4ccc(C[n+]5cnc(N6CCCCCC6)c6ccsc65)cc4)cc3)c2s1` [Ff-36], the “% Inhibition Choline Uptake at 0.5 μM” value in [4] is 71.78 ± 0.1%. Further, in test [4], the “% Inhibition Choline Uptake at 2 μM” value came out at 95.32 ± 0.29%. Moreover, the GI50 was determined as 2260 ± 300 nM in [9]; 3.02 ± 0.4 µM in [10]; 440 ± 20 nM in test [11]; 2260 ± 300 nM in test [12]; 6.2 ± 0.9 µM in test [13]; 2540 ± 200 nM in test [14]. For the same compound, the figures for the GI50 in test [15] and in [16] were above 10 µM and 1430 ± 100 nM, respectively. The same compound showed an IC50 in test [8] (concentration required to inhibit CKα1 enzyme by 50%) of 350 ± 50 nM. Further, the “% Inhibition at 10 µM” value in [8] is recorded as 84.47%. Besides, in test [8], the “% Inhibition at 30 µM” value was 96.07%.
